SMILES strings stand for the structures. In brackets after ≈: the same amount, converted by molar mass.

The test system of one assay is Escherichia coli. Nature of the assay: Antibacterial activity against Escherichia coli at </=64 ug/mL; No activity. Type of assay: functional, organism-based.
The test system of assay [1] is Staphylococcus aureus. Nature of the assay: Antibacterial activity against Staphylococcus aureus; Range is 0.5-2. Type of assay: functional.
Assay [2] relates to Enterococcus faecalis. The experiment in a line: Antibacterial activity against Enterococcus faecalis; Range is 4-16. The format is functional.
The test system of the next assay is Mus musculus. The experiment in a line: Antibacterial activity against Staphylococcus aureus infection in mouse after i.v. administration (Vancomycin, ED50= 1.0 mg/kg ). The format is functional. Particulars: route intravenous.
For assay [3], the system named is Staphylococcus aureus. Nature of the assay: Antibacterial activity against Staphylococcus aureus; Range is 0.5-1. The format is functional.
Assay [4] deals with Enterococcus faecalis. Nature of the assay: Antibacterial activity against Enterococcus faecalis; Range is 1-2. Type of assay: functional.
Assay [5] deals with Staphylococcus aureus. The experiment in a line: Antibacterial activity against Staphylococcus aureus; Range is 4-8. The format is functional.
Assay [6] has as its system Enterococcus faecalis. Nature of the assay: Antibacterial activity against Enterococcus faecalis; Range is 16-64. Type of assay: functional.
The subject of assay [7] is Staphylococcus aureus. Nature of the assay: Antibacterial activity against Staphylococcus aureus; Range is 1-2. Type of assay: functional.
The subject of assay [8] is Enterococcus faecalis. The experiment in a line: Antibacterial activity against Enterococcus faecalis; Range is 4-8. Type of assay: functional.
Assay [9] deals with Staphylococcus aureus. Nature of the assay: Antibacterial activity against Staphylococcus aureus; Range is 2-8. Type of assay: functional.
Assay [10] deals with Enterococcus faecalis. Nature of the assay: Antibacterial activity against Enterococcus faecalis; Range is 8-16. Type of assay: functional.
The subject of assay [11] is Enterococcus faecalis. The experiment in a line: Antibacterial activity against Enterococcus faecalis; Range is 16-32. Type of assay: functional.
Assay [12] concerns Staphylococcus aureus. The experiment in a line: Antibacterial activity against Staphylococcus aureus; Range is 2-4. The format is functional.
Assay [13] has as its system Staphylococcus aureus. Nature of the assay: Antibacterial activity against Staphylococcus aureus. The format is functional.
For assay [14], the system named is Enterococcus faecalis. Nature of the assay: Antibacterial activity against Enterococcus faecalis; Range is 4-32. Type of assay: functional.
Assay [15] has as its system Enterococcus faecalis. Nature of the assay: Antibacterial activity against Enterococcus faecalis; Range is 64->64. The format is functional.
The test system of assay [16] is Enterococcus faecalis. The experiment in a line: Antibacterial activity against Enterococcus faecalis; Range is 1-4. The format is functional.
In assay [17] the test system is Staphylococcus aureus. The experiment in a line: Antibacterial activity against Staphylococcus aureus; Range is 8-16. Type of assay: functional.

As a reminder, the MIC is the lowest concentration found to suppress growth. Regarding `CCCCCCC(=O)OC[C@H]1O[C@H](Oc2ccc(C[C@H]3NC(=O)[C@H]([C@@H](C)c4ccccc4)NC(=O)CNC(=O)[C@H](CO)NC(=O)[C@@H]([C@@H](O)[C@@H]4CNC(N)N4[C@H]4O[C@H](CO)[C@@H](O)[C@H](O)[C@@H]4O)NC(=O)[C@H]([C@@H](O)[C@@H]4CNC(N)N4)NC3=O)cc2)[C@@H](O)[C@@H](O)[C@@H]1O[C@H]1O[C@H](CO)[C@@H](O)[C@H](O)[C@@H]1O` (stereo not given in full), the MIC result is “No activity” in the assay on Escherichia coli, 2 µg/mL (≈ 1.42 µM) against Staphylococcus aureus [1] and 16 µg/mL (≈ 11.3 µM) against Enterococcus faecalis [2].

Broadly, the ED50 is the dose at which the effect has come halfway, by size or by number of responders. A low value points to an effect at a small dose. Turning to `C[C@@H](c1ccccc1)[C@@H]1NC(=O)CNC(=O)[C@H](CO)NC(=O)[C@@H]([C@@H](O)[C@@H]2CNC(N)N2[C@H]2O[C@H](CO)[C@@H](O)[C@H](O)[C@@H]2O)NC(=O)[C@H]([C@@H](O)[C@@H]2CNC(N)N2)NC(=O)[C@@H](Cc2ccc(O[C@H]3O[C@H](CO)[C@@H](O[C@H]4O[C@H](COC(=O)C(c5ccccc5)c5ccccc5)[C@@H](O)[C@H](O)[C@@H]4O)[C@H](O)[C@@H]3O)cc2)NC1=O` (stereo not given in full), the MIC entry in the assay on Escherichia coli is “No activity”; in the assay on Staphylococcus aureus [3], 1 µg/mL (≈ 0.67 µM); in the assay with Enterococcus faecalis [4], 2 µg/mL (≈ 1.34 µM). For the same compound, the 50% effect level in the assay with Mus musculus (ED50) was put at a dose of 0.29 mg/kg.

Take `C[C@@H](c1ccccc1)[C@@H]1NC(=O)CNC(=O)[C@H](CO)NC(=O)[C@@H]([C@@H](O)[C@@H]2CNC(N)N2[C@H]2O[C@H](CO)[C@@H](O)[C@H](O)[C@@H]2O)NC(=O)[C@H]([C@@H](O)[C@@H]2CNC(N)N2)NC(=O)[C@@H](Cc2ccc(O[C@H]3O[C@H](COC(=O)OCc4ccccc4)[C@@H](O[C@H]4O[C@H](CO)[C@@H](O)[C@H](O)[C@@H]4O)[C@H](O)[C@@H]3O)cc2)NC1=O` (stereo not given in full): the MIC entry is “No activity” in the assay with Escherichia coli, 8 µg/mL (≈ 5.58 µM) in the assay with Staphylococcus aureus [5] and 64 µg/mL (≈ 44.6 µM) in the assay on Enterococcus faecalis [6].

Regarding `CCCCCC(=O)OC[C@H]1O[C@H](O[C@H]2[C@H](O)[C@H](O)[C@@H](Oc3ccc(C[C@H]4NC(=O)[C@H]([C@@H](C)c5ccccc5)NC(=O)CNC(=O)[C@H](CO)NC(=O)[C@@H]([C@@H](O)[C@@H]5CNC(N)N5[C@H]5O[C@H](CO)[C@@H](O)[C@H](O)[C@@H]5O)NC(=O)[C@H]([C@@H](O)[C@@H]5CNC(N)N5)NC4=O)cc3)O[C@@H]2CO)[C@@H](O)[C@@H](O)[C@@H]1O` (stereo not given in full), the MIC entry is “No activity” in the assay with Escherichia coli, 2 µg/mL (≈ 1.43 µM) in the assay on Staphylococcus aureus [7] and 8 µg/mL (≈ 5.72 µM) against Enterococcus faecalis [8]. This compound also had an ED50 in the assay on Mus musculus of 4 mg/kg.

Regarding `C[C@@H](c1ccccc1)[C@@H]1NC(=O)CNC(=O)[C@H](CO)NC(=O)[C@@H]([C@@H](O)[C@@H]2CNC(N)N2[C@H]2O[C@H](CO)[C@@H](O)[C@H](O)[C@@H]2O)NC(=O)[C@H]([C@@H](O)[C@@H]2CNC(N)N2)NC(=O)[C@@H](Cc2ccc(O[C@H]3O[C@H](COC(=O)C(c4ccccc4)c4ccccc4)[C@@H](O[C@H]4O[C@H](CO)[C@@H](O)[C@H](O)[C@@H]4O)[C@H](O)[C@@H]3O)cc2)NC1=O` (stereo not given in full), the values for the MIC result in the assay on Escherichia coli, in the assay with Staphylococcus aureus [7] and in the assay on Enterococcus faecalis [8] were “No activity”, 2 µg/mL (≈ 1.34 µM) and 8 µg/mL (≈ 5.36 µM), respectively.

For `C[C@@H](c1ccccc1)[C@@H]1NC(=O)CNC(=O)[C@H](CO)NC(=O)[C@@H]([C@@H](O)[C@@H]2CNC(N)N2[C@H]2O[C@H](CO)[C@@H](O)[C@H](O)[C@@H]2O)NC(=O)[C@H]([C@@H](O)[C@@H]2CNC(N)N2)NC(=O)[C@@H](Cc2ccc(O[C@H]3O[C@H](CO)[C@@H](O[C@H]4O[C@H](COC(=O)OCc5ccccc5)[C@@H](O)[C@H](O)[C@@H]4O)[C@H](O)[C@@H]3O)cc2)NC1=O` (stereo not given in full), the results for the MIC result in the assay on Escherichia coli, against Staphylococcus aureus [9] and against Enterococcus faecalis [10] were “No activity”, 8 µg/mL (≈ 5.58 µM) and 16 µg/mL (≈ 11.2 µM), respectively.

`CCCCCC(=O)OC[C@H]1O[C@H](Oc2ccc(C[C@H]3NC(=O)[C@H]([C@@H](C)c4ccccc4)NC(=O)CNC(=O)[C@H](CO)NC(=O)[C@@H]([C@@H](O)[C@@H]4CNC(N)N4[C@H]4O[C@H](CO)[C@@H](O)[C@H](O)[C@@H]4O)NC(=O)[C@H]([C@@H](O)[C@@H]4CNC(N)N4)NC3=O)cc2)[C@@H](O)[C@@H](O)[C@@H]1O[C@H]1O[C@H](CO)[C@@H](O)[C@H](O)[C@@H]1O` (stereo not given in full): the results for the MIC result in the assay on Escherichia coli, with Enterococcus faecalis [11] and with Staphylococcus aureus [5] were “No activity”, 32 µg/mL (≈ 22.9 µM) and 8 µg/mL (≈ 5.72 µM), respectively.

Consider `C[C@@H](c1ccccc1)[C@@H]1NC(=O)CNC(=O)[C@H](CO)NC(=O)[C@@H]([C@@H](O)[C@@H]2CNC(N)N2[C@H]2O[C@H](CO)[C@@H](O)[C@H](O)[C@@H]2O)NC(=O)[C@H]([C@@H](O)[C@@H]2CNC(N)N2)NC(=O)[C@@H](Cc2ccc(O[C@H]3O[C@H](CO)[C@@H](O[C@H]4O[C@H](COC(=O)Cc5ccccc5)[C@@H](O)[C@H](O)[C@@H]4O)[C@H](O)[C@@H]3O)cc2)NC1=O` (stereo not given in full), for which the MIC result in the assay on Escherichia coli was “No activity”; against Staphylococcus aureus [12], 4 µg/mL (≈ 2.82 µM); against Enterococcus faecalis [10] it was 16 µg/mL (≈ 11.3 µM).

As for `CCCC(CCC)C(=O)OC[C@H]1O[C@H](Oc2ccc(C[C@H]3NC(=O)[C@H]([C@@H](C)c4ccccc4)NC(=O)CNC(=O)[C@H](CO)NC(=O)[C@@H]([C@@H](O)[C@@H]4CNC(N)N4[C@H]4O[C@H](CO)[C@@H](O)[C@H](O)[C@@H]4O)NC(=O)[C@H]([C@@H](O)[C@@H]4CNC(N)N4)NC3=O)cc2)[C@@H](O)[C@@H](O)[C@@H]1O[C@H]1O[C@H](CO)[C@@H](O)[C@H](O)[C@@H]1O` (stereo not given in full), the MIC entry in the assay on Escherichia coli is “No activity”; against Staphylococcus aureus [13], 4 µg/mL (≈ 2.81 µM); with Enterococcus faecalis [14] it was 32 µg/mL (≈ 22.4 µM).

Consider `CC(C)CC(=O)O[C@@H]1[C@@H](O[C@H]2[C@H](O)[C@H](O)[C@@H](Oc3ccc(C[C@H]4NC(=O)[C@H]([C@@H](C)c5ccccc5)NC(=O)CNC(=O)[C@H](CO)NC(=O)[C@@H]([C@@H](O)[C@@H]5CNC(N)N5[C@H]5O[C@H](CO)[C@@H](O)[C@H](O)[C@@H]5O)NC(=O)[C@H]([C@@H](O)[C@@H]5CNC(N)N5)NC4=O)cc3)O[C@@H]2CO)O[C@H](CO)[C@@H](O)[C@@H]1O` (stereo not given in full), for which the MIC entry was “No activity” in the assay with Escherichia coli, 8 µg/mL (≈ 5.78 µM) with Staphylococcus aureus [13] and 64 µg/mL (≈ 46.3 µM) in the assay with Enterococcus faecalis [15]. For the same compound, in the assay with Mus musculus, it took a dose of 3.5 mg/kg to reach the 50% effect level (ED50).

With `CCCCCCC(=O)OC[C@H]1O[C@H](O[C@H]2[C@H](O)[C@H](O)[C@@H](Oc3ccc(C[C@H]4NC(=O)[C@H]([C@@H](C)c5ccccc5)NC(=O)CNC(=O)[C@H](CO)NC(=O)[C@@H]([C@@H](O)[C@@H]5CNC(N)N5[C@H]5O[C@H](CO)[C@@H](O)[C@H](O)[C@@H]5O)NC(=O)[C@H]([C@@H](O)[C@@H]5CNC(N)N5)NC4=O)cc3)O[C@@H]2CO)[C@@H](O)[C@@H](O)[C@@H]1O` (stereo not given in full), the MIC result in the assay on Escherichia coli is “No activity”; with Staphylococcus aureus [3], 1 µg/mL (≈ 0.708 µM); in the assay on Enterococcus faecalis [16], 4 µg/mL (≈ 2.83 µM). For the same compound, it took a dose of 4 mg/kg to reach the 50% effect level in the assay with Mus musculus (ED50).

As to `C[C@@H](c1ccccc1)[C@@H]1NC(=O)CNC(=O)[C@H](CO)NC(=O)[C@@H]([C@@H](O)[C@@H]2CNC(N)N2[C@H]2O[C@H](CO)[C@@H](O)[C@H](O)[C@@H]2O)NC(=O)[C@H]([C@@H](O)[C@@H]2CNC(N)N2)NC(=O)[C@@H](Cc2ccc(O[C@H]3O[C@H](COC(=O)Cc4ccccc4)[C@@H](O[C@H]4O[C@H](CO)[C@@H](O)[C@H](O)[C@@H]4O)[C@H](O)[C@@H]3O)cc2)NC1=O` (stereo not given in full), the MIC was 16 µg/mL (≈ 11.3 µM) with Staphylococcus aureus [17], “No activity” with Escherichia coli and 64 µg/mL (≈ 45.2 µM) against Enterococcus faecalis [15].
